The values that follow come from ChEMBL document CHEMBL1208757, “Furan based cyclic homo-oligopeptides bind G-quadruplex selectively and repress c-MYC transcription” (Bioorg Med Chem Lett, 2010).

The test system of assay [1] is Nucleic Acid. Nature of the assay: Binding affinity to 22 mer c-MYC DNA G-quadruplex assessed as change in melting temperature at 1.2 uM by FRET assay. It is filed as nucleic-acid assay.
Assay [2] deals with Nucleic Acid. The experiment in a line: Binding affinity to 22 mer c-MYC DNA G-quadruplex assessed as change in melting temperature at 0.4 uM by FRET assay. The class given is nucleic-acid assay.
Assay [3] has as its system HeLa. The experiment in a line: Downregulation of c-MYC gene expression in human HeLa cell line at 200 uM after 24 hrs by RT-PCR analysis. The class given is functional.
The test system of assay [4] is Nucleic Acid. Nature of the assay: Binding affinity to 22 mer c-MYC DNA G-quadruplex assessed as change in melting temperature at 0.8 uM by FRET assay. The class given is nucleic-acid assay.
The target of assay [5] is Nucleic Acid. The experiment in a line: Binding affinity to 22 mer c-MYC G-quadruplex assessed as effect on ligand-telomeric complex formation by […]. It is filed as nucleic-acid assay. For orientation: SPA uses beads or plates that emit light when radiolabelled molecules are held near them.
A further assay concerns Calf thymus DNA. The experiment in a line: Binding affinity to calf thymus DNA assessed as change in melting temperature at 0.2 to 1.6 uM by […]. It is filed as nucleic-acid assay. The settings on record: Bos taurus.
In assay [6] the test system is Nucleic Acid. Nature of the assay: Binding affinity to 22 mer c-MYC DNA G-quadruplex assessed as change in melting temperature at 0.2 uM by FRET assay. The class given is nucleic-acid assay.
Assay [7] has as its system HeLa. The experiment in a line: Induction of apoptosis in human HeLa cell line at 200 uM after 24 hrs by annexin V/conjugated 7-AAD nexin assay. The class given is functional.
Assay [8] has as its system Nucleic Acid. The experiment in a line: Binding affinity to 22 mer c-MYC DNA G-quadruplex assessed as induction of quadruplex folding at 5 to 10 uM by CD spectroscopy. It is filed as nucleic-acid assay.
For assay [9], the system named is Nucleic Acid. Nature of the assay: Binding affinity to 22 mer c-MYC G-quadruplex by isothermal titration calorimetry. The class given is nucleic-acid assay. (In general: ITC needs no label: the signal is the heat of the interaction.)
For assay [10], the system named is HeLa. Nature of the assay: Cytotoxicity against human HeLa cells at 100 uM after 5 days by propidium iodide staining-based flow cytometry. It is filed as functional, cell-based.
In assay [11] the test system is HeLa. Nature of the assay: Downregulation of c-MYC gene expression in human HeLa cell line at 100 uM after 24 hrs by RT-PCR analysis. It is filed as functional.

Structures are written as SMILES. Activity calls are given as the source filed them. The rule behind the calls is not given here.

For orientation: inhibition means the relative decrease from the control value, in per cent. As usually defined, the Kd is the equilibrium constant for the complex coming apart.

In the case of `NCC1=C2CNC(=O)C3=CC(CN)=C(CNC(=O)c4cc(CN)c(o4)CNC(=O)C(=C1)O2)O3.O=C(O)C(F)(F)F.O=C(O)C(F)(F)F.O=C(O)C(F)(F)F`, the Tm with Nucleic Acid [1] stood at 8 °C; in the assay on Nucleic Acid [2], 4 °C; with Nucleic Acid [4], 6 °C; with Nucleic Acid [6] it was 2 °C. At 200 µM the inhibition in the assay on HeLa [3] was 50%. For the same molecule, the Kd at Nucleic Acid [5] is 1200 nM. In addition, the result with Calf thymus DNA and in the assay on HeLa [10] was inactive. In addition, in the assay with HeLa [7], the Activity was found to be 18%. The outcome in the assay with Nucleic Acid [8] was Active. Also, in the assay with Nucleic Acid [9], the K came out at 3.21 ×10⁵ /M.
Turning to `NCCC(=O)NCC1=C2CNC(=O)C3=CC(CNC(=O)CCN)=C(CNC(=O)c4cc(CNC(=O)CCN)c(o4)CNC(=O)C(=C1)O2)O3.O=C(O)C(F)(F)F.O=C(O)C(F)(F)F.O=C(O)C(F)(F)F`, the Tm was 20 °C with Nucleic Acid [1], 12 °C in the assay on Nucleic Acid [2], 15 °C in the assay with Nucleic Acid [4] and 5 °C with Nucleic Acid [6]. Besides, the dissociation constant Kd at Nucleic Acid [5] came out at 2100 nM. This molecule also displayed an inhibition at 100 µM in the assay on HeLa [11] of 50%. Besides, the outcome in the assay with Calf thymus DNA and with HeLa [10] was inactive. In the assay with HeLa [7], the Activity came to 22%. Further, the outcome in the assay with Nucleic Acid [8] was Active. In the assay with Nucleic Acid [9], this molecule returned a K of 5.7 ×10⁵ /M.
